# How the values were obtained:
# Assay type in all cases: functional, cell-based
# A549 = test: Cytotoxicity against human A549 cells after 48 hrs by MTT assay; conditions: A549, 48 h
# SMMC-7721 = test: Cytotoxicity against human SMMC7721 cells after 48 hrs by MTT assay; conditions: SMMC-7721, 48 h
# HL-60 = test: Cytotoxicity against human HL60 cells after 48 hrs by MTT assay; conditions: HL-60, 48 h
# MCF7 = test: Cytotoxicity against human MCF7 cells after 48 hrs by MTT assay; conditions: MCF7, 48 h
# SW480 = test: Cytotoxicity against human SW480 cells after 48 hrs by MTT assay; conditions: SW480, 48 h
SMILES,IC50 (A549; read-out: IC50) [µM],IC50 (A549; read-out: pIC50 (converted)) [µM],IC50 (SMMC-7721; read-out: IC50) [µM],IC50 (SMMC-7721; read-out: pIC50 (converted)) [µM],IC50 (HL-60; read-out: IC50) [µM],IC50 (HL-60; read-out: pIC50 (converted)) [µM],IC50 (MCF7; read-out: IC50) [µM],IC50 (MCF7; read-out: pIC50 (converted)) [µM],IC50 (SW480; read-out: IC50) [µM],IC50 (SW480; read-out: pIC50 (converted)) [µM]
C=C1[C@@H]2CC[C@H]3[C@]45CO[C@H](CC4=O)C(C)(C)C5=C(O)C(=O)[C@]3(C2)[C@@H]1O (relative stereo),24.9,25.1,21.5,20,9.9,9.9,12.9,12.6,15.4,15.8
C=C1C(=O)[C@]23C[C@H]1CC[C@H]2[C@@]12CO[C@]3(O)[C@@H](O)[C@@H]1C(C)(C)C=CC2=O [ERIOCALYXIN B],3.1,3.16,0.8,0.794,0.3,0.316,0.6,0.631,0.5,0.501
C=C(C=O)[C@@H]1CC[C@@H]2[C@@H](C1)C(=O)[C@@H](O)[C@@H]1C(C)(C)[C@H]3CC(=O)[C@@]21CO3 [LAXIFLORIN P],11.7,12.6,5.6,5.01,3.8,3.98,3.2,3.16,3.1,3.16
CC1(C)[C@H]2[C@H](O)C(=O)[C@@H]3C[C@H](C(=O)O)CC[C@H]3[C@@]23CO[C@@H]1CC3=O [LAXIFLORIN Q],> 40,> 39.8,> 40,> 39.8,> 40,> 39.8,> 40,> 39.8,> 40,> 39.8
C[C@H]1C[C@](O)([C@@H]2CC[C@@H]3[C@@H](C2)C(=O)[C@@H](O)[C@@H]2C(C)(C)[C@H]4CC(=O)[C@@]32CO4)C(=O)O1 [LAXIFLOROLIDE A],> 40,> 39.8,> 40,> 39.8,> 40,> 39.8,> 40,> 39.8,> 40,> 39.8
C[C@@H]1C[C@](O)([C@@H]2CC[C@@H]3[C@@H](C2)C(=O)[C@@H](O)[C@@H]2C(C)(C)[C@H]4CC(=O)[C@@]32CO4)C(=O)O1 [LAXIFLOROLIDE B],> 40,> 39.8,> 40,> 39.8,> 40,> 39.8,> 40,> 39.8,> 40,> 39.8
C=C1[C@@H]2CC[C@H]3[C@@]45CO[C@](O)([C@@H](O)[C@@H]4C(C)(C)C=CC5=O)[C@]3(C2)[C@@H]1O [MAOECRYSTAL C],> 40,> 39.8,> 40,> 39.8,18.9,20,14.4,15.8,14.5,15.8
C=C1C(=O)[C@]23C[C@H]1CC[C@H]2[C@]12CO[C@H](CC1=O)C(C)(C)C2=C(O)C3=O [MAOECRYSTAL P],6.3,6.31,2.8,2.51,1,1,1.8,2,2.1,2
